“Also recorded” adds a separate entry of the source. Blank lines part the entries; values can stand above or below the molecule they belong to.
Key:
[1] = biological target: T1, ERαFD furin degron domain fused to an anti-CD19 scFv CAR (Homo sapiens, UniProt P03372, G521R/L384M/M421G/N519S/T371A/Y537S); assay: CAR expression by FACS in Jurkat T cells transduced with ERαFD furin degron-anti-CD19 scFv CAR; type: cell-based; conditions: 1 μM, 24 hours
T1 construct: signal peptide (CD8 leader) followed by Arg-Ser linker (N); furin cleavage site (C); anti-CD19 scFv CAR (CD8 hinge, 4-1BB, CD3zeta) (C); expressed in transfected cells; host or cells: Jurkat T cells, lentiviral transduction
T1 sequence (P03372 305-549 T371A/L384M/M421G/N519S/G521R/Y537S): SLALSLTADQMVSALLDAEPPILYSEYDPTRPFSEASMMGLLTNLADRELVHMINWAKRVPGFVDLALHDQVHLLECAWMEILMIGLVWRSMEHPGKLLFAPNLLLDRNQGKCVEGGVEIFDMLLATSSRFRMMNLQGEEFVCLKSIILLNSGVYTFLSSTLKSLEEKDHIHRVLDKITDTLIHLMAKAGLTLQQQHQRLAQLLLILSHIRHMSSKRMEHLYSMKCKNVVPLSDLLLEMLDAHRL

[2] = test system: nontransduced T cells; assay: AP20187 treatment of T cells not expressing inducible caspase-9; type: cell-based, human; conditions: 16 hours at 37° C.
Procedure: (§1) CAR T cells were incubated in the presence of the indicated concentrations of AP20187 for 16 hours at 37° C. Dead cells were detected with live/dead-violet dye and quantified by flow cytometry. Only T cells that expressed the inducible caspase were eliminated (FMC63 iC9 or CD19 sCAR, as well as iC9 control CAR).
(§2) Elimination of CD19 CAR T cells. CD19 sCAR T cells were incubated in the presence of the indicated concentrations AP20187 for 16 hours at 37° C. Dead cells were detected with live/dead-violet dye and quantified by flow cytometry.

[3] = test system: CD19 sCAR T cells; assay: Elimination of CD19 sCAR T cells by AP20187 (live/dead-violet dye, flow cytometry); type: cell-based, human; conditions: 16 hours at 37° C.
Procedure: as §1, §2

[4] = test system: CD19 sCAR T cells; assay: In vivo depletion of CD19 sCAR T cells by AP1903 in Nalm6-injected mice
Procedure: FIG. 40 is a series of flow cytometry graphs depicting that the suicide activation results in pheripheral depletion of the suicide CAR T cells. Mice were injected with Nalm6 cells and after 5 days were treated with 19 s CAR T cells. CD19s CAR T cells were sorted before injection based on scFV expression. Flow plots show peripheral T cells (CD3+, CD45+) on day 8 and day 26. CD19 sCAR T cells were depleted on day 10 by injection of AP1903 (10 mg/kg).
The quantification of T cells was done from several mice. Mice were treated with AP1903 on day 10 to deplete sCAR T cells.

[5] = test system: universal sCAR T cells; assay: Depletion of universal sCAR T cells by AP1903 in BT mice (qPCR, peripheral blood); type: in vivo; conditions: 4 weeks after AP1903 treatment (3 daily injections with 10 mg/kg)
Procedure: FIG. 44 is a schematic timeline of the experimental design of the in vivo experiment of the present invention. Using BT (bone marrow, liver, and thymus) mice for assessment of universal sCAR function in a non-oncology mouse model. Human fetal bone marrow and thymus were implanted into NSG mice on day −91. Validation of engraftment was done by flow cytometry on day −27. Universal T cells expressing CD19 sCAR T cells were injected on day 0, B cell depletion was assessed on day 10 and mice were treated with AP1903 (3 daily injections with 10 mg/kg). sCAR survival was assessed with qPCR.
A qPCR from peripheral blood WPRE copy number was performed with a gDNA, 4 weeks after AP1903 treatment.

[6] = test system: CD19rev CAR T cells; assay: Titration of Shield-1 in CD19rev CAR T cells (remaining CAR+ cells, flow cytometry); type: cell-based; conditions: different doses of Shield-1 for 24 h
Procedure: FIG. 37 is a series of flow cytometry graphs depicting the titration of Shield-1 in CD19rev CAR. CD19rev CAR T cells (˜38% transduced) were incubated in different doses of Shield-1 for 24 h to assess dose-dependent caspase-9 acitvation. The remaining CAR+ cells were quantified by flow cytometry.

[7] = biological target: T2, FKBPFD furin degron domain fused to an anti-CD19 scFv CAR (Homo sapiens, UniProt P62942, F37V); assay: CAR expression by FACS in Jurkat T cells transduced with FKBPFD furin degron-anti-CD19 scFv CAR; type: cell-based; conditions: 1 μM Shield1
T2 construct: signal peptide (CD8 leader) (N); furin cleavage site (C); anti-CD19 scFv CAR (CD8 hinge, 4-1BB, CD3zeta) (C); expressed in transfected cells; host or cells: Jurkat T cells, lentiviral transduction
T2 sequence (P62942 with tags, fused parts or gaps F37V): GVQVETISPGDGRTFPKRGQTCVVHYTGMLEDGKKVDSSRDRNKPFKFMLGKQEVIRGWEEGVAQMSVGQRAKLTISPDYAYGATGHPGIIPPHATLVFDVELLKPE
Procedure: The scFvs used in the CAR constructs that were assessed in Examples 3 were independently synthesized based on an anti-CD19 scFv sequence described above. […] The proteins used in the furin-degron constructs that were assessed in Examples 4-5 were independently synthesized based on publicly available sequence data.
Jurkat cell lines were transduced by spinoculation with lentiviral supernatant from 293T cells transfected with pELPS using the protein-furin domain regulated plasmid DNA.
Trimethoprim (TMP) was resuspended in DMSO. In all instances where concentrations not indicated, compounds were added for 24 hours in total prior to analysis by flow cytometry.
FKBPFD transduced cells treated with 1 μM Shield1. ERαFD transduced cells treated with 1 μM Bazedoxifene. DHFRFD transduced cells treated with 1 mM TMP. […] Black=UTD; Gray=construct, no compound; White=construct, compound.

[8] = test system: CD20 on-CAR; assay: CD20 on-CAR surface expression (MFI, flow cytometry) versus Shield-1 concentration; type: cell-based
From the text: FIG. 36 is series of graphs illustrating the modulation of CAR surface expression with FKBP ligand Shield-1. CD20 on-CAR T cells were stained for CAR expression and the mean fluorescence intensity (MFI, assessed by flow cytometry) of the CAR signal was plotted against the Shield-1 concentration. […] Absence of Shield-1 results in ˜60% reduction of CD20 on-CAR expression (bottom graph).

[9] = test system: CD19+ NALM6 cells; assay: Proliferation assay in co-culture with target cells (FACS, counting beads); conditions: presence or absence of bazedoxifene; 4 days; versus parental CAR19
[10] = test system: NALM6, a CD19+ target cell line; assay: Cytokine secretion in co-culture with target cells; conditions: presence or absence of bazedoxifene; 20 hours; versus parental CAR19

- CAR 19 expression [1]: can induce CAR 19 expression
Molecule: Oc1ccc2c(c1)CC[C@H](c1ccccc1)[C@@H]2c1ccc(OCCN2CCCC2)cc1 [Lasofoxifene]

Molecule: CC[C@H](C(=O)N1CCCC[C@H]1C(=O)O[C@H](CCc1ccc(OC)c(OC)c1)c1cccc(OCC(=O)NCC(CNC(=O)COc2cccc([C@@H](CCc3ccc(OC)c(OC)c3)OC(=O)[C@@H]3CCCCN3C(=O)[C@@H](CC)c3cc(OC)c(OC)c(OC)c3)c2)CN(C)C)c1)c1cc(OC)c(OC)c(OC)c1 [AP20187]
- Cell death after AP20187 [2]: no cell death
- Cell death after AP20187 [3]: specifically killed; also recorded: specific and robust elimination of CD19 sCAR T cells

Molecule: CC[C@H](C(=O)N1CCCC[C@H]1C(=O)O[C@H](CCc1ccc(OC)c(OC)c1)c1cccc(OCC(=O)NCCNC(=O)COc2cccc([C@@H](CCc3ccc(OC)c(OC)c3)OC(=O)[C@@H]3CCCCN3C(=O)[C@@H](CC)c3cc(OC)c(OC)c(OC)c3)c2)c1)c1cc(OC)c(OC)c(OC)c1 [AP1903]
- T cells in spleen (human CD3 staining) ([4]; >2 weeks after AP1903 treatment): T cells are not detectable
- Peripheral T cells (CD3+, CD45+) ([4]; AP1903 10 mg/kg on day 10, versus vehicle, 10 mg/kg): T cells are hardly detectable after suicide activation; also recorded: the T cell percentages drop in the AP1903 group
- sCAR T cells in spleen (quantitative PCR) ([4]; AP1903 versus vehicle treated mice): near-total sCAR absence in most mice
- sCAR T cells in peripheral blood (qPCR, WPRE copy number) [5]: can be depleted with AP1903 treatment; also recorded: near-total sCAR absence in 2/3 mice

Molecule: CC[C@H](C(=O)N1CCCC[C@H]1C(=O)O[C@H](CCc1ccc(OC)c(OC)c1)c1cccc(OCCN2CCOCC2)c1)c1cc(OC)c(OC)c(OC)c1 [Shield1, Shield-1]
- caspase-9 activation and apoptosis (proportion of CAR+ cells) [6]: lower doses of Shield-1 result in higher caspase-9 activation and increased apoptosis
- Expression of the anti-CD19 scFv [7]: inducible in the presence of compound; also recorded: inducible by the stabilizing compound
- Kinetics of CAR expression following compound addition [7]: occurs rapidly following compound addition and is stable throughout the period of compound treatment
- CAR expression (MFI) versus Shield-1 concentration ([8]; CD20 on-CAR T cells): dose-dependent increase in CAR expression
- reduction of CD20 on-CAR expression ([8]; absence of Shield-1): ~60%

B1: construct #106: ERα furin degron (ERmut1) fused to anti-CD19 scFV CAR; furin site GTGAEDPRPSRKRRSLGDVG (SEQ ID NO: 125) (protein)
chain: RSSLALSLTADQMVSALLDAEPPILYSEYDPTRPFSEASMMGLLTNLADRELVHMINWAKRVPGFVDLALHDQVHLLECAWMEILMIGLVWRSMEHPGKLLFAPNLLLDRNQGKCVEGGVEIFDMLLATSSRFRMMNLQGEEFVCLKSIILLNSGVYTFLSSTLKSLEEKDHIHRVLDKITDTLIHLMAKAGLTLQQQHQRLAQLLLILSHIRHMSSKRMEHLYSMKCKNVVPLSDLLLEMLDAHRLGTGAEDPRPSRKRRSLGDVGEIVMTQSPATLSLSPGERATLSCRASQDISKYLNWYQQKPGQAPRLLIYHTSRLHSGIPARFSGSGSGTDYTLTISSLQPEDFAVYFCQQGNTLPYTFGQGTKLEIKGGGGSGGGGSGGGGSQVQLQESGPGLVKPSETLSLTCTVSGVSLPDYGVSWIRQPPGKGLEWIGVIWGSETTYYSSSLKSRVTISKDNSKNQVSLKLSSVTAADTAVYYCAKHYYYGGSYAMDYWGQGTLVTVSSTTTPAPRPPTPAPTIASQPLSLRPEACRPAAGGAVHTRGLDFACDIYIWAPLAGTCGVLLLSLVITLYCKRGRKKLLYIFKQPFMRPVQTTQEEDGCSCRFPEEEEGGCELRVKFSRSADAPAYKQGQNQLYNELNLGRREEYDVLDKRRGRDPEMGGKPRRKNPQEGLYNELQKDKMAEAYSEIGMKGERRRGKGHDGLYQGLSTATKDTYDALHMQALPPR
- Proliferation [9]: proliferate in the presence of CD19+ tumor cells, in a manner that is stabilizing compound-dependent and is noninferior to the parental CAR19 construct
- levels of IFNγ [10]: secrete IFNγ in the presence of CD19+ tumor cells, in a manner that is stabilizing compound dose-dependent and is noninferior to the parental CAR construct
